Measured values as given in patent US6989389B2, “Aryl ether substituted imidazoquinolines” (3M Innovative Properties Co., priority 2000, dated 2006).
Where a name gives a salt, the structure may show the parent alone. Read-outs that look alike come from different tables or passages of the source.

Assays:
[1] = test system: Peripheral blood mononuclear cells (PBMC); assay: Cytokine Induction in Human Cells (in vitro human blood cell system, IFN and TNF secreted into culture media); format: cell-based; design: key to Lowest Effective Concentration (μM) Tumor Necrosis Factor / Lowest Effective Concentration (μM) Interferon: *: no induction was seen at any of the tested concentrations; settings: 18 to 24 hours, tested 30-0.014 μM; for minimal effective concentration: Homo sapiens, PBMC
Excerpt: An in vitro human blood cell system is used to assess cytokine induction. Activity is based on the measurement of interferon and tumor necrosis factor (α) (IFN and TNF, respectively) secreted into culture media as described by Testerman et. al. In “Cytokine Induction by the Immunomodulators Imiquimod and S-27609”, Journal of Leukocyte Biology, 58, 365-372 (September, 1995).
Whole blood from healthy human donors is collected by venipuncture into EDTA vacutainer tubes. Peripheral blood mononuclear cells (PBMC) are separated from whole blood by density gradient centrifugation using Histopaque®-1077. Blood is diluted 1:1 with Dulbecco's Phosphate Buffered Saline (DPBS) or Hank's Balanced Salts Solution (HBSS). The PBMC layer is collected and washed twice with DPBS or HBSS and resuspended at 4×10^6 cells/mL in RPMI complete. The PBMC suspension is added to 48 well flat bottom sterile tissue culture plates (Costar, Cambridge, Mass. or Becton Dickinson Labware, Lincoln Park, N.J.) containing an equal volume of RPMI complete media containing test compound.
The compounds are solubilized in dimethyl sulfoxide (DMSO). The DMSO concentration should not exceed a final concentration of 1% for addition to the culture wells. The compounds are generally tested at concentrations ranging from 30-0.014 μM.
The solution of test compound is added at 60 μM to the first well containing RPMI complete and serial 3 fold dilutions are made in the wells. The PBMC suspension is then added to the wells in an equal volume, bringing the test compound concentrations to the desired range (30-0.014 μM). The final concentration of PBMC suspension is 2×10^6 cells/mL. The plates are covered with sterile plastic lids, mixed gently and then incubated for 18 to 24 hours at 37° C. in a 5% carbon dioxide atmosphere.
Following incubation the plates are centrifuged for 10 minutes at 1000 rpm (˜200×g) at 4° C. The cell-free culture supernatant is removed with a sterile polypropylene pipet and transferred to sterile polypropylene tubes. Samples are maintained at −30 to −70° C. until analysis. The samples are analyzed for interferon (α) by ELISA and for tumor necrosis factor (α) by ELISA or IGEN Assay.
Interferon (α) concentration is determined by ELISA using a Human Multi-Species kit from PBL Biomedical Laboratories, New Brunswick, N.J. Results are expressed in pg/mL.
Tumor necrosis factor (α) (TNF) concentration is determined using ELISA kits available from Biosource International, Camarillo, Calif. Alternately, the TNF concentration can be determined by Origen® M-Series Immunoassay and read on an IGEN M-8 analyzer from IGEN International, Gaithersburg, Md. The immunoassay uses a human TNF capture and detection antibody pair from Biosource International, Camarillo, Calif. Results are expressed in pg/mL.
The table below lists the lowest concentration found to induce interferon and the lowest concentration found to induce tumor necrosis factor for each compound.

[2] = lowest concentration found to induce interferon (α), ELISA, read-out: Lowest Effective Concentration (μM) Interferon
[3] = lowest concentration found to induce tumor necrosis factor (α), ELISA or IGEN assay, read-out: Lowest Effective Concentration (μM) Tumor Necrosis Factor
[4] = lowest concentration found to induce tumor necrosis factor (α), ELISA or IGEN assay
[5] = lowest concentration found to induce interferon (α), ELISA

With `CC(C)c1ccccc1C#CCOCCn1cnc2c(N)nc3ccccc3c21` (as salt: hydrochloride) [Example 7, 1-(2-{[3-(2-Isopropylphenyl)-2-propynyl]oxy}ethyl)-1H-imidazo[4,5-c]quinolin-4-amine Hydrochloride] the melting point was 239 to 241 °C.

For `CCOCc1nc2c(N)nc3ccccc3c2n1CCOCCCc1ccccc1` (as salt: hydrochloride) [Example 16, 2-(Ethoxymethyl)-1-[2-(3-phenylpropoxy)ethyl]-1H-imidazo[4,5-c]quinolin-4-amine Hydrochloride], the melting point was 128 to 134 °C.

With `Nc1nc2ccccc2c2c1ncn2CCOCCCc1ccc(-n2cccc2)cc1` (as salt: trifluoroacetate) [Example 11, 1-(2-{3-[4-(1H-1-Pyrrolyl)phenyl]propoxy}ethyl)-1H-imidazo[4,5-c]quinolin-4-amine trifluoroacetate] the melting point was 179 to 181 °C.

Work on `Nc1nc2ccccc2c2c1ncn2CCOCCCc1cccc(C(=O)O)c1` (as salt: trifluoroacetate) [Example 12, 3-{3-[2-(4-Amino-1H-imidazo[4,5-c]quinolin-1-yl)ethoxy]propyl}benzoic acid bis(trifluoroacetate)] yielded a melting point of 138 to 140 °C.

Compound `Nc1nc2ccccc2c2c1ncn2CCOCCCc1ccccc1C(=O)O` (as salt: trifluoroacetate) [Example 13, 2-{3-[2-(4-Amino-1H-imidazo[4,5-c]quinolin-1-yl)ethoxy]propyl}benzoic acid trifluoroacetate] has a melting point of 186 to 188 °C.

In the case of `Nc1nc2ccccc2c2c1ncn2CCOCCCc1ccc(C(=O)O)cc1` (as salt: trifluoroacetate) [Example 14, 4-{3-[2-(4-Amino-1H-imidazo[4,5-c]quinolin-1-yl)ethoxy]propyl}benzoic acid trifluoroacetate], the melting point is reported as 235 to 237 °C.

In the case of `CN(C)c1ccc(CCCOCCn2cnc3c(N)nc4ccccc4c32)cc1` (as salt: trifluoroacetate) [Example 114, 1-(2-{3-[4-(Dimethylamino)phenyl]propoxy}ethyl)-1H-imidazo[4,5-c]quinolin-4-amine], the melting point is reported as 137 to 140 °C.

In the case of `C#CCOCCn1cnc2c(N)nc3ccccc3c21` [Example 1, 1-[2-(2-Propynyloxy)ethyl]-1H-imidazo[4,5-c]quinolin-4-amine], the minimal effective concentration [1, 2] is reported as 0.12 µM, the minimal effective concentration [1, 3] is reported as 1.11 µM and the melting point is reported as 225 to 227 °C.

For `N#Cc1ccccc1C#CCOCCn1cnc2c(N)nc3ccccc3c21` [Example 2, 2-{3-[2-(4-Amino-1H-imidazo[4,5-c]quinolin-1-yl)ethoxy]-1-propynyl}benzonitrile], the minimal effective concentration [1, 2] was 1.11 µM, the “Lowest Effective Concentration (μM) Tumor Necrosis Factor” value [1, 4] was “*” and the melting point was 180 to 183 °C.

`CCCCc1nc2c(N)nc3c(c2n1CCOCc1ccc(C#N)cc1)CCCC3` [Example 93] gave a minimal effective concentration [1, 2] of 0.12 µM and a minimal effective concentration [1, 3] of 10 µM.

Work on `CCCCc1nc2c(N)nc3c(c2n1CCOCc1cccc(C#N)c1)CCCC3` [Example 94] yielded a minimal effective concentration [1, 2] of 0.01 µM and a minimal effective concentration [1, 3] of 3.33 µM.

For `CCCCc1nc2c(N)nc3c(c2n1CCOCc1ccc(C(C)(C)C)cc1)CCCC3` [Example 95], the minimal effective concentration [1, 2] was 1.11 µM and the “Lowest Effective Concentration (μM) Tumor Necrosis Factor” value [1, 4] was “*”.

For `CC(Cn1cnc2c(N)nc3ccccc3c21)Oc1ccccc1C#N` (stereo not shown) [Example 97], the minimal effective concentration [1, 2] was 1.11 µM and the “Lowest Effective Concentration (μM) Tumor Necrosis Factor” value [1, 4] was “*”.

With `CC(Cn1cnc2c(N)nc3ccccc3c21)Oc1ccc(-n2ccnc2)cc1` (stereo not shown) [Example 98] the minimal effective concentration [1, 2] was 0.37 µM and the “Lowest Effective Concentration (μM) Tumor Necrosis Factor” value [1, 4] was “*”.

For `COc1ccc(OC(C)Cn2cnc3c(N)nc4ccccc4c32)cc1` (stereo not shown) [Example 99], the minimal effective concentration [1, 2] was 0.37 µM and the “Lowest Effective Concentration (μM) Tumor Necrosis Factor” value [1, 4] was “*”.

With `CC(Cn1cnc2c(N)nc3ccccc3c21)Oc1ccc(C(C)(C)CC(C)(C)C)cc1` (stereo not shown) [Example 100] the “Lowest Effective Concentration (μM) Interferon” value [1, 5] was “*” and the “Lowest Effective Concentration (μM) Tumor Necrosis Factor” value [1, 4] was “*”.

Work on `CCC(COc1ccc(-n2ccnc2)cc1)n1cnc2c(N)nc3ccccc3c21` (stereo not shown) [Example 101] yielded a minimal effective concentration [1, 2] of 0.04 µM and a minimal effective concentration [1, 3] of 10 µM.

With `CCC(COc1ccccc1C#N)n1cnc2c(N)nc3ccccc3c21` (stereo not shown) [Example 102] the minimal effective concentration [1, 2] was 0.37 µM and the “Lowest Effective Concentration (μM) Tumor Necrosis Factor” value [1, 4] was “*”.

In the case of `CCC(COc1ccc(C(C)(C)CC(C)(C)C)cc1)n1cnc2c(N)nc3ccccc3c21` (stereo not shown) [Example 103], the minimal effective concentration [1, 3] is reported as 10 µM and the “Lowest Effective Concentration (μM) Interferon” value [1, 5] is reported as “*”.

For `CCC(COc1ccc(NC(C)=O)cc1)n1cnc2c(N)nc3ccccc3c21` (stereo not shown) [Example 104], the minimal effective concentration [1, 2] was 0.12 µM and the minimal effective concentration [1, 3] was 10 µM.

`Nc1nc2ccccc2c2c1ncn2CCOc1ccccc1` [Example 105, 1-(2-Phenoxyethyl)-1H-imidazo[4,5-c]quinolin-4-amine] gave a minimal effective concentration [1, 2] of 0.37 µM and a minimal effective concentration [1, 3] of 1.11 µM.

For `CCC(COc1ccccc1)n1cnc2c(N)nc3ccccc3c21` (stereo not shown) [Example 106, 1-[(1-Phenoxymethyl)propyl]-1H-imidazo[4,5-c]quinolin-4-amine], the minimal effective concentration [1, 2] was 0.37 µM and the “Lowest Effective Concentration (μM) Tumor Necrosis Factor” value [1, 4] was “*”.

Compound `CC[C@H](COCCCc1ccccc1)n1cnc2c(N)nc3ccccc3c21` [Example 109, 1-{(1R)-1-[(3-Phenylpropoxy)methyl]propyl}-1H-imidazo[4,5-c]quinolin-4-amine] has a minimal effective concentration [1, 2] of 0.01 µM and a minimal effective concentration [1, 3] of 0.37 µM.

With `C[C@@H](COCc1ccc(C#N)cc1)Cn1cnc2c(N)nc3ccccc3c21` [Example 110] the minimal effective concentration [1, 2] was 3.33 µM and the “Lowest Effective Concentration (μM) Tumor Necrosis Factor” value [1, 4] was “*”.

For `C[C@@H](COCc1ccc(C(C)(C)C)cc1)Cn1cnc2c(N)nc3ccccc3c21` [Example 111], the minimal effective concentration [1, 2] was 3.33 µM and the “Lowest Effective Concentration (μM) Tumor Necrosis Factor” value [1, 4] was “*”.

With `C[C@@H](COCc1cccc(Cl)c1)Cn1cnc2c(N)nc3ccccc3c21` [Example 112] the “Lowest Effective Concentration (μM) Interferon” value [1, 5] was “*” and the “Lowest Effective Concentration (μM) Tumor Necrosis Factor” value [1, 4] was “*”.

With `CN(C)c1ccc(CCCOCCn2cnc3c(N)nc4ccccc4c32)cc1` [Example 114, 1-(2-{3-[4-(Dimethylamino)phenyl]propoxy}ethyl)-1H-imidazo[4,5-c]quinolin-4-amine] the minimal effective concentration [1, 2] was 0.12 µM and the minimal effective concentration [1, 3] was 0.37 µM.

In the case of `Cc1nc2c(N)nc3ccccc3c2n1CCOCC#Cc1ccccc1` [Example 118, 2-Methyl-1-{2-[(3-phenylprop-2-ynyl)oxy]ethyl}-1H-imidazo[4,5-c]quinolin-4-amine], the minimal effective concentration [1, 2] is reported as 0.01 µM and the minimal effective concentration [1, 3] is reported as 0.04 µM.

In the case of `Nc1nc2ccccc2c2c1nc(CC1CC1)n2CCOc1ccccc1` [Example 137, 2-(Cyclopropylmethyl)-1-(2-phenoxyethyl)-1H-imidazo[4,5-c]quinolin-4-amine], the melting point is reported as 191.7 to 192.6 °C.

With `CC[C@H](COCc1ccc(C#N)cc1)n1cnc2c(N)nc3ccccc3c21` [Example 142, 4-({[(2R)-2-(4-Amino-1H-imidazo[4,5-c]quinolin-1-yl)butyl]oxy}methyl)benzonitrile] the minimal effective concentration [1, 2] was 0.04 µM and the minimal effective concentration [1, 3] was 0.04 µM.

`CC[C@@H](COCc1ccc(C#N)cc1)n1cnc2c(N)nc3ccccc3c21` [Example 143, 4-({[(2S)-2-(4-Amino-1H-imidazo[4,5-c]quinolin-1-yl)butyl]oxy}methyl)benzonitrile] gave a minimal effective concentration [1, 2] of 1.11 µM and a minimal effective concentration [1, 3] of 3.33 µM.

`C#CCOCCn1c(CCOC)nc2c(N)nc3ccccc3c21` [Example 144, 2-(2-Methoxyethyl)-1-[2-(prop-2-ynyloxy)ethyl]-1H-imidazo[4,5-c]quinolin-4-amine] showed a minimal effective concentration [1, 2] of 0.01 µM and a minimal effective concentration [1, 3] of 0.04 µM.
